Experimental data as given in patent publication US20090203636A1, “Prevention and Treatment of Cancer and Other Diseases” (priority 2006, published 2009).
“And” between values parts separate entries of the source, which are not always exact repeats. Equal values may be shown once.

What was measured:
[1] = system: Saos-2 osteosarcoma cells; conditions: therapeutic concentrations, 14 days; reported in WO 2005/069880; cited from earlier work
[2] = system: U-2 OS cells; conditions: therapeutic concentrations, 14 days; reported in WO 2005/069880; cited from earlier work
[3] = system: Saos-2 osteosarcoma cells; experiment: Telomere length (flow cytometry, PNA probe), cell cycle distribution (PI) and apoptosis in Saos-2 cells; assay type: cell-based, human; conditions: therapeutic concentrations of AZT, 14 days
Experimental: (§1) The ALT cell lines were treated with therapeutic concentrations of AZT, to determine if slippage telomeric DNA synthesis could be inhibited by AZT-TP, and thereby induce telomere shortening. Telomere length in AZT treated and untreated cell lines was measured by flow cytometry with a telomere specific peptide nucleic acid (PNA) probe. To determine cell cycle distribution, cells were stained with propidium iodide (PI).

[4] = system: HeLa cells; experiment: Telomere length (flow cytometry, PNA probe), cell cycle distribution (PI) and apoptosis in HeLa cells; assay type: cell-based, human
Experimental: as §1
(§2) The origin of the cell lines are uterine cervix (HeLa) and epithelial ovarian (NuTu-19). Cells were cultured in D-MEM media supplemented with 10% fetal calf serum at 37° C. in a humidified atmosphere of 5% CO2. For treatment of the cells with GCV, the media was supplemented with 1.5 μM of GCV (Cymevene, Hoffman-La Roche). For treatment of the cells with ACV, the media was supplemented with 3 μM of Acyclovir (Acyclovir, TEVA Pharm. Ind. Id. Israel).
(§3) Real time TRAP assay was performed as described (Wege et al., SYBR Green real-time telomeric repeat amplification protocol for the rapid quantification of telomerase activity. Nucleic Acids Res. 2003; 31(2):E3-3). For telomere length measurement by flow cytometry, cells were stained with telomere specific FITC conjugated (C3TA2)3 PNA (Applied Biosystems) probe and contrastained with 0.06 μg/ml PI as described by Rufer, N., Dragowska, W., Thornbury G., Roosnek, E., Lansdorp P. M. Telomere length dynamics in human lymphocyte subpopulations […]. Nat. Biotechnol. 16, 743-747 (1998)).
(§4) Both telomerase positive (Hela) telomerase negative (U-2 OS) cell lines were used. Appropriate assays were performed to detect and confirm telomerase/L1RT specific activity in these cells.
(§5) The U-2 OS (osteosarcoma) and HeLa (uterine cervix) cell lines used in this study were obtained from American Type Culture Collection (Rockville, Md.). Cells were cultured in D-MEM media supplemented with 10% fetal calf serum at 37° C. in a humidified atmosphere of 5% CO2. For treatment of the cells with ACV, the media was supplemented with 3 μM of acyclovir (acyclovir, TEVA Pharm. Ind. Ltd, Israel). For treatment of the cells with GCV, the media was supplemented with 1.5 μM of GCV (Cymevene, Hoffman-La Roche). For treatment of the cells with PCV, the media was supplemented with 1.5 μM of PCV (penciclovir, Merck & Co.).
(§6) Telomere length in SN 1 or SN 2 treated and untreated cell lines was measured by flow cytometry with a telomere—specific peptide nucleic acid PNA) probe. To determine cell cycle distribution, cells were stained with propidium iodide (PI).
(§7) The U-2 OS (osteosarcoma) and Hela (uterine cervix) cell lines used in this study were obtained from American Type Culture Collection (Rockville, Md.). Cells were cultured in D-MEM media supplemented with 10% fetal calf serum at 37° C. in a humidified atmosphere of 5% CO2. For treatment of the cells with SN 1 or SN 2, the media was supplemented with 1.5 μM of SN1 or SN2.
(§8) For telomere length measurement by flow cytometry, cells were stained with telomere specific FITC conjugated (C3TA2)3 PNA (Applied Biosystems) probe and contra-stained with 0.06 μg/ml PI as described by Rufer, N., Dragowska, W., Thornbury G., Roosnek, E., Lansdorp P. M. Telomere length dynamics in human lymphocyte subpopulations […]. Nat. Biotechnol. 16, 743-747 (1998)).

[5] = system: U-2 OS/RAS cells; experiment: Prevention and treatment of telomerase negative (ALT) tumors in nude mice injected s.c. with U-2 OS/RAS cells; assay type: in vivo
Experimental: (a) Nude mice injected with U-2 OS/RAS cells: Crl1:CD1-/nu mice were purchased from Charles River Laboratories, Charles River Deutschland GmbH (Dec. 23, 2004). A total of 12 Nude mice were injected s.c. with 6×10^5 U-2 OS/RAS cells. These mice were divided into experimental and control groups.
The experimental group of mice started to receive AZT in drinking water (1 mg/ml) from the day one. In the control group, mice developed tumors (in N1 by the 26th day; in N2 by the […] and in N3 by the 41st day following the tumor cell injection).
All mice without tumors were sacrificed. One mouse from control group that developed tumors first was sacrificed on the 51 day following the tumor cell injection. Tumor tissue was mechanically separated to raise cell suspension. About 20 million of cells were seeded in McCoy's 5 A media supplemented with 10% FCS. The tissue cultured cells were used for further analysis.
Two mice from control group with tumors started to receive AZT in drinking water (1 mg/ml) from day 52. One mouse had died on day 80. Second was sacrificed on day 110 following the tumor cell injection. Tumor tissue was collected and stored at −80° C. for further analysis.

[6] = system: U-2 OS cells; experiment: Telomere length (flow cytometry, PNA probe), cell cycle distribution (PI), apoptosis and TRAP status in U-2 OS cells; assay type: cell-based, human
Experimental: as §1
Rate of DNA synthesis was determined by incorporation of 5-bromodeoxyuridine (BdU). […] It is important to note that changes in cell cycle distribution, DNA synthesis and telomere length were rapid and could be detected after only 10 days of AZT treatment.
Telomere length in untreated and GCV treated cells was measured by flow cytometry with a telomere-specific PNA probe as described above.
To determine cell cycle distribution, cells were stained with propidium iodide (PI).
as §4, §5, §3
(a) In vitro arrays: U-2 OS cells were incubated with 0.2 μM of AZT for 22 days. Actively growing clones were analyzed by flow-FISH with telomere specific PNA probe, and in real time TRAP assay using HeLa cells as positive control. Isolated actively growing clones were different from parental cells in DNA content and telomere length.
as §6, §7, §8

[7] = system: NuTu-19 cells; experiment: Telomere length (flow cytometry, PNA probe), cell cycle distribution (PI) and apoptosis in NuTu-19 cells; assay type: cell-based; conditions: AZT even at elevated concentrations e.g., 100 μM
Experimental: as §2, §3

[8] = system: inoperable carcinoma of stomach; assay type: in vivo, human; conditions: one patient
Experimental: (a) Background therapy: 1 tablet of Retrovir® (AZT) 300 mg and 1 tablet of Zovirax™ (acyclovir, Glaxo Welcome), 400 mg/Valcyte® (valganciclovir) 450 mg/Valtrex® (Val-ACV) 500 mg all BID. Different acyclic nucleoside analogs were used during the 83 days of background therapy for reasons related to market availability.

[9] = system: HeLa cells; assay type: in vivo
Experimental: For in vivo assay, appropriate host, e.g., nude (nu/nu) mice of about 5-7 weeks old are obtained and maintained in pathogen-free conditions. Approximately, 1×10^6 HeLa cells (and/or U-2 OS cells) contained in 200 μl of serum-free media are delivered to all animals, briefly anaesthetize with Metofane, by subcutaneous (s.c.) injection in flank. Then the mice are divided into experimental group and control group. Appropriate concentrations of compounds of the formulas (I) to (VI), ACV, PCV and/or GCV are used for tumor growth progression or regression assays.
In one embodiment, impairment of s.c. tumor growth or time to progression rather than decrease in size of an established tumor (regression) is assessed. In this embodiment, starting from the day zero, mice in the experimental group receive GCV in drinking water ad libitum. Concentration of GCV in water can be 2 mg/ml. Fresh solution of GCV is supplied every 3 days. Mice in the control group receive only drinking water. Tumors are measured every 2-3 days. Mice are sacrificed when tumors exceed 1 cm^3. Tumor volume is calculated with formula 4/3πr^3, where r is the radius of the tumor.
Experimental group received valganciclovir in drinking water from day 0. Human cancer HeLa cell culture was purchased from ATCC. In all, 12 CD1/-nu and 12 NMRiI/-nu nude mice were purchased from Charles River Laboratories, Charles River Deutschland GmbH. These nude mice were injected s.c. with 3×10^5 Hela cells. Mice in the experimental groups (6 mice per strain) were exposed to Valcyte® (val-ganciclovir) in drinking water (1 mg/ml) from day 0.
(a) In vivo assays using Valganciclovir and zidovudine (AZT) combination: Human cancer HeLa cell culture was purchased from ATCC. A total of 24 CD1/-nu nude mice were purchased from Charles River laboratories, Charles River Deutschland GmbH. These mice were injected s.c. with 1×10^5 HeLa cells. The tumor volumes were determined by measurement of maximal and minimal diameters of the tumor. The calculations were conducted using the formula V=4/3 πRmax×Rmin^2, where Rmax−½ of maximal diameter of the tumor, and Rmin−½ of minimal diameter of the tumor. nude mice were injected s.c. with 1×10^5 Hela cells.
Of the 12 treated mice, after 20 days of double cocktail treatment, six mice were administered with a triple cocktail (Valcyte®+Retrovir®+ddI at the dose of 1 mg/ml each in drinking water for a further period 21 days (see Example 7 below) and only six mice continued to receive the double cocktail for another 21 days at which time tumor measurements were taken for all mice injected with HeLa cells. Of the remaining 12 mice injected with HeLa cells but untreated with any cocktail or anticancer agent thus far, six were maintained as controls for the rest of the duration of the experiment. The other six were treated with Xeloda® 67 days after the injection of HeLa cells (see Example 7 below).
As mentioned in Example 5 above, a total of six mice, after 20 days of double cocktail treatment, were administered with a triple cocktail (Valcyte®+Retrovir®+ddI at the dose of 1 mg/ml each in drinking water) for a further period 21 days. After 14 days of triple cocktail treatment, Xeloda® at a concentration 1 mg/ml was added to the triple cocktail. Six mice previously untreated with any drug for 67 days after the injection of HeLa cells were treated with Xeloda® at a concentration 1 mg/ml in drinking water. Tumor measurements were taken in all mice 75 days following the injection of HeLa cells.

[10] = system: MH22A cells; experiment: MH22a hepatoma tumors in C3HA mice, Cocktails 1-6 followed by added Xeloda (Example 10c, second experiment); assay type: in vivo, C3HA inbred mice
Experimental: In Vivo assays using the compounds of the formulas (I) to (IV) and valine esters of formulas I and II each in a triple cocktail with other nucleoside analogs and tumor in combination with AZT and ddI were carried out as follows:
8-10 weeks old male C3HA inbred mice (immunocometent mice) were purchased from Laboratory Animals Breeding Facility of Russian Academy of Medical Science (Rappalovo, Leningrad region). 3×10^5 MH22a cells were injected s.c. into back flank of 200 mice. Ten days after the injections, mice bearing developing tumors (14.15 mm^3) (the tumor volume calculated using the formula π/6 DmaxDmin^2) were selected and randomly divided into different experimental groups as set forth below:
Cocktail 1—Valacyclovir (0.166 mg/ml)+AZT (0.1 mg/ml)+ddI (0.066 mg/ml)−40 mice;
Cocktail 2—SN-1 (1 mg/ml)+AZT (0.1 mg/ml)+ddI (0.066 mg/ml)−10 mice;
Cocktail 3—SN-3 (1 mg/ml)+AZT (0.1 mg/ml)+ddI (0.066 mg/ml)−10 mice;
Cocktail 4—SN4 (1 mg/ml)+AZT (0.1 mg/ml)+ddI (0.066 mg/ml)−10 mice;
cocktail 5—Val-SN-1 (0.166 mg/ml)+AZT (0.1 mg/ml)+ddI (0.066 mg/ml)−20 mice; and
Cocktail 6—Val-SN-2 (0.166 mg/ml)+AZT (0.1 mg/ml)+ddI (0.066 mg/ml)−20 mice; and
Control group—Capecitabine (Xeloda®) (1 mg/ml) in drinking water-mice.
Valacyclovir (Valtrex® manufactured by GlaxoSmithKline) is a prodrug of acyclovir, which is an acyclic nucleoside analog. Didanosine (ddI) and AZT are non-acyclic-nucleoside analogs. The drugs, at the concentrations indicated above, were administered to the mice in drinking water. Two weeks following the cocktail treatments Xeloda® (1 mg/ml) was added to each of the cocktails and continued for the remaining experimental period. In the control group, mice were treated only with Xeloda® (1 mg/ml) in drinking water and this treatment started at the same time as the Xeloda® treatments in the cocktail groups. […] Tumor volumes (mm^3) in each injected mice were calculated, using the formula π/6 DmaxDmin^2, every week for four consecutive weeks following the commencement of the treatment with the drugs.

[11] = Xeloda 1 mg/ml added to cocktails after two weeks

Compound | telomere length, cell cycle and apoptosis [1] | telomere length, cell cycle and apoptosis [2] | telomere length, apoptosis and cell cycle distribution [3] | telomere length or cell cycle distribution ([4]; AZT at the chosen concentration, same conditions as ALT cells) | telomere length or cell cycle distribution ([4]; AZT even at elevated concentrations e.g., 100 μM) | growth of established ALT tumors ([5]; AZT in drinking water (1 mg/ml) from day 52) | tumor development ([5]; AZT in drinking water (1 mg/ml) from day one, three of six control mice developed tumors) | telomerase status (real time TRAP assay) of actively growing clones ([6]; 0.2 μM of AZT for 22 days) | telomere length and rate of DNA synthesis (BdU incorporation) ([6]; AZT for different amounts of time) | telomere length, apoptosis and cell cycle distribution ([6]; therapeutic concentrations of AZT, 14 days) | telomere length or cell cycle distribution [7] | toxicity in the patient [8] | average size of tumors less compared to the untreated control group ([9]; Xeloda 1 mg/ml in drinking water from day 67) [%] | survival ([9]; drugs 1 mg/ml each in drinking water, 75 days following injection of HeLa cells) [%] | Tumor Volume (mm^3) in nude mice 75 days following the injection of HeLa cells ([9]; mean value of 4 mice) | Number tumor-free ([10]; 4 weeks of treatment, Xeloda 1 mg/ml added to cocktails after two weeks) | Number died during the 4 week treatment period [10, 11] | Number showing tumors after four weeks of treatment [10, 11] | Tumor volume at the end of the experimental period ([10]; individual tumor-bearing mice, formula π/6 DmaxDmin^2)
Cc1cn([C@H]2C[C@H](N=[N+]=[N-])[C@@H](CO)O2)c(=O)[nH]c1=O [AZT, azido-2′,3′-dideoxythymidine] | telomere shortening, G2 arrest and massive apoptosis | telomere shortening, G2 arrest and massive apoptosis | telomere shortening, massive apoptosis and G2 arrest | no effect on telomere length or cell cycle distribution | no effect on telomere length or cell cycle distribution | slowing of tumor growth | No one mice from AZT treated group had developed tumors | positive for telomerase | progressive telomere shortening and decrease in DNA synthesis | telomere shortening, massive apoptosis and G2 arrest | no effect on telomere length or cell cycle distribution | – | – | – | – | – | – | – | –
CCCCCOC(=O)Nc1nc(=O)n([C@@H]2O[C@H](C)[C@@H](O)[C@H]2O)cc1F [Xeloda®] | – | – | – | – | – | – | – | – | – | – | – | caused toxicity in the patient | 17 | 66 | 1811.0 (mean value) mm^3 | 0 | 2 | 6 | 6288 mm^3 (2×) and 10480 mm^3 and 1152 mm^3 and 2146 mm^3 and 4192 mm^3
